# Results taken from the supplement of paper PMC10307832.
# What was measured:
# Assay in all cases: relative viability (nuclei count vs DMSO), 5 days (fraction); higher = more cells survive
# Midostaurin + Olaparib = compound: CO[C@@H]1[C@H](N(C)C(=O)c2ccccc2)C[C@H]2O[C@]1(C)n1c3ccccc3c3c4c(c5c6ccccc6n2c5c31)C(=O)NC4 [Midostaurin] + O=C(c1cc(Cc2n[nH]c(=O)c3ccccc23)ccc1F)N1CCN(C(=O)C2CC2)CC1 [Olaparib] (partner 8 µM)
# Method in brief: (§1)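 Relative viability was taken as the ratio of nuclei in treated wells to nuclei in vehicle wells. Lung cancer cell lines in 1536-well plates received compounds by pin tool one day after seeding, either one drug alone or a fixed anchor-drug dose plus five library-drug doses (not always all listed) in √10 steps. Nuclei were counted on 4× images after 5 days of treatment, and values are medians of duplicate plates.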
# Midostaurin + Dasatinib = compound: CO[C@@H]1[C@H](N(C)C(=O)c2ccccc2)C[C@H]2O[C@]1(C)n1c3ccccc3c3c4c(c5c6ccccc6n2c5c31)C(=O)NC4 [Midostaurin] + Cc1nc(Nc2ncc(C(=O)Nc3c(C)cccc3Cl)s2)cc(N2CCN(CCO)CC2)n1 [Dasatinib] (partner 0.075 µM)
# Method in brief: as §1
# [1] = compound: COc1cc(-c2nn([C@H]3CC[C@H](N4CCN(C(C)=O)CC4)CC3)c3ncnc(N)c23)ccc1NC(=O)c1cc2ccccc2n1C + CC(=O)Nc1cccc(-n2c(=O)n(C3CC3)c(=O)c3c(Nc4ccc(I)cc4F)n(C)c(=O)c(C)c32)c1 [Trametinib] (partner 0.02 µM)
# Method in brief: as §1
# [2] = compound: COc1cc(-c2nn([C@H]3CC[C@H](N4CCN(C(C)=O)CC4)CC3)c3ncnc(N)c23)ccc1NC(=O)c1cc2ccccc2n1C + COc1cccc2cc(-c3nc([C@H]4CC[C@H](C(=O)O)CC4)n4ncnc(N)c34)[nH]c12 [OSI-027] (partner 0.5 µM)
# Method in brief: as §1
# [3] = compound: COc1cc(-c2nn([C@H]3CC[C@H](N4CCN(C(C)=O)CC4)CC3)c3ncnc(N)c23)ccc1NC(=O)c1cc2ccccc2n1C + C[C@@H](Oc1cc(-c2cnn(C3CCNCC3)c2)cnc1N)c1c(Cl)ccc(F)c1Cl [Crizotinib] (partner 1 µM)
# Method in brief: as §1
Cell Line,relative viability (Midostaurin + Olaparib; first compound 0.01 µM),relative viability (Midostaurin + Olaparib; first compound 0.03162 µM),relative viability (Midostaurin + Olaparib; first compound 0.1 µM),relative viability (Midostaurin + Olaparib; first compound 0.3162 µM),relative viability (Midostaurin + Dasatinib; first compound 0.01 µM),relative viability (Midostaurin + Dasatinib; first compound 0.03162 µM),relative viability (Midostaurin + Dasatinib; first compound 0.1 µM),relative viability (Midostaurin + Dasatinib; first compound 0.3162 µM),relative viability ([1]; first compound 0.0128 µM),relative viability ([1]; first compound 0.04048 µM),relative viability ([1]; first compound 0.128 µM),relative viability ([1]; first compound 1.28 µM),relative viability ([2]; first compound 0.0128 µM),relative viability ([2]; first compound 0.04048 µM),relative viability ([2]; first compound 0.128 µM),relative viability ([2]; first compound 1.28 µM),relative viability ([3]; first compound 0.0128 µM),relative viability ([3]; first compound 0.04048 µM),relative viability ([3]; first compound 0.128 µM),relative viability ([3]; first compound 1.28 µM)
LCLC-97TM1,0.52,0.374,0.32,0.464,0.822,0.798,0.827,0.968,0.22,0.125,0.139,0.133,0.596,0.243,0.489,0.586,0.364,0.409,0.359,0.519
EPLC-272H,0.659,0.729,0.658,0.372,0.381,,0.422,0.351,0.331,0.205,0.278,0.24,0.27,,0.293,0.264,0.974,0.924,0.984,0.701
NCI-H1915,0.257,0.249,0.243,0.224,0.359,0.334,0.29,0.331,0.333,0.141,0.301,0.241,0.677,0.404,0.585,0.481,0.87,0.942,0.866,0.869
NCI-H2405,0.841,0.827,0.838,0.861,0.216,0.199,0.212,0.201,0.645,0.307,0.532,0.347,0.679,0.465,0.633,0.324,0.827,,0.733,0.442
NCI-H322M,0.703,0.72,0.698,0.779,0.272,0.233,0.258,0.332,0.453,0.489,0.491,0.463,0.584,0.509,0.5,0.526,0.999,0.871,0.767,0.878
NCI-H2170,0.569,0.569,0.551,0.54,0.572,0.55,0.512,0.735,0.992,0.797,0.919,0.876,0.81,0.468,0.701,0.687,1.3,1.13,1.2,0.923
NCI-H358,0.511,0.48,0.531,0.575,0.177,0.124,0.15,0.208,0.153,0.125,0.131,0.115,0.645,0.618,0.508,0.28,0.563,0.619,0.586,0.368
NCI-H838,0.748,0.839,0.511,0.229,0.237,0.282,0.292,0.288,0.5,0.479,0.506,0.403,0.38,0.375,0.422,0.359,0.809,0.854,0.759,0.534
CAL-12T,0.76,0.585,0.681,0.633,0.446,0.395,0.295,0.239,0.331,0.289,0.349,0.326,0.638,0.497,0.7,0.461,0.621,0.818,0.581,0.413
